Source: patent US20250122207A1, “AP2 ASSOCIATED KINASE 1 INHIBITORS AND USES THEREOF” (Satellos Bioscience Inc., priority 2023, published 2025)
pIC50: −log10 of the molar value. Read-outs that look alike come from different tables or passages of the source.

Tests used:
[1] = molecular target: T1, AAK1 (amino acids T27-A365) (Homo sapiens, UniProt Q2M2I8); assay: AAK1 pSENs assay; assay type: biochemical
T1 construct: against AAK1 (amino acids T27-A365); 6His (N, cleaved yes)
Procedure, shortened: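 Biotinylated, tag-free AAK1 T27-A365 expressed in E. coli was held at 20 nM in enzyme solution (HEPES pH 7.5, 10 mM MgCl2, DTT, EGTA, Brij35, BSA) and preincubated with compound for 15 min at 25 °C. The reaction was started with an equal volume of substrate solution containing 30 uM AQT0759 peptide and 70 uM ATP. IC50 determined.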

AAK1 = AAK1 (Homo sapiens, UniProt Q2M2I8); assay: pAP2M1 cell-based assay (in-cell Western)
From the text: pAP2M1 Cell-Based Assay (in-Cell Western):
The plate was read on Licor Odyssey CLx imaging system (LICOR) to acquire fluorescence intensity at 700 channel and 800 channel.
Data analysis: Fluorescence intensity at 700 channel served as internal standard and 800 channel were normalized with 700 channel.

[2] = molecular target: T2, BIKE (amino acids S38-E345) (K320A, K321A) (Homo sapiens, UniProt Q9NSY1, K320A/K321A); assay: BIKE pSENs assay; assay type: biochemical
T2 construct: against BIKE (amino acids S38-E345) (K320A, K321A); 6His (N, cleaved yes)
Procedure, shortened: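 E. coli-expressed, biotinylated, tag-free BIKE at 20 nM in HEPES pH 7.5 buffer with 10 mM MgCl2 preincubated with compound 15 min at 25° C. Reaction started with 30 uM AQT0759 sensor peptide and 40 uM ATP (concentrations before 1:1 mixing).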

[3] = molecular target: T3, GAK (amino acids Q25-N335) (Homo sapiens, UniProt O14976); assay: GAK pSENs assay; assay type: biochemical
T3 construct: against GAK (amino acids Q25-N335); 6His (N, cleaved yes)
T3 sequence (O14976 25-335): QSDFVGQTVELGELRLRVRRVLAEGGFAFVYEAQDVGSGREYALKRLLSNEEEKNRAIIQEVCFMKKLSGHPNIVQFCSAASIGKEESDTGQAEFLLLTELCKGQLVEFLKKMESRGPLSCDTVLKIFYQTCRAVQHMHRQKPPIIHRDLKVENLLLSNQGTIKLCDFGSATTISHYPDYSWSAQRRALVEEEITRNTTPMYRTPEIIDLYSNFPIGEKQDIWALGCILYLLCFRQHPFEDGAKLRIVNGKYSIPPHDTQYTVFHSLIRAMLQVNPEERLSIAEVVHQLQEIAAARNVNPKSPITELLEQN
Description: The recombinant proteins were independently expressed in Escherichia coli BL21(DE3) cells cultured in Luria-Bertani (LB) medium until OD600 reached 0.6-0.8, then cooled to 15° C. and supplemented with 0.5 mM isopropyl 1-thio-D-galactopyranoside (IPTG) induce protein expression 16 h. Cells were harvested and resuspended in lysis buffer (50 mM HEPES pH 7.5, 500 mM NaCl, 5 mM imidazole, 5% glycerol, 0.5 mM Tris (2-carboxyethyl) phosphine (TCEP), cOmplete Protease Inhibitor Tablet (Roche)) and lysed by microfludics high pressure homogenizer (UH-06, Union-Biotech). Proteins were purified using […] chromatography (His FF column, Bestchrom) and eluted stepwise in binding buffer with 20-300 mM imidazole. Removal of the hexahistidine tag was performed at 4° C. overnight using recombinant TEV protease and reacted with BirA to obtain the corresponding biotinylated-AAK1, BIKE or GAK proteins. Further separated in the reverse Strep column (Strep-Tactin® XT, IBA). The Biotin elution sample was collected containing untagged biotinylated protein was then purified by Ion-exchange chromatography (Mono Q 10/100 GL, Cytiva) and Size-exclusion chromatography (HiLoad 16/600 Superdex 200 pg, Cytiva). The pure protein was stored in a storage buffer 50 mM HEPES (pH 7.5), 300 mM NaCl, 5% glycerol at −80° C. Protein were characterized by SDS-PAGE, LC-MS and aSEC.
This example describes one illustrative method for determining the IC50 of the compounds of the present invention against GAK (amino acids Q25-N335).

[4] = class symbols, read-out: AAK1 pSENs: EIC50
[5] = Hela cells co-transfected with AP2M1 and AAK1, 3 hr treatment, class symbols, read-out: AAK1 In-cell Western: IC50
[6] = class symbols, read-out: BIKE pSENs: IC50
[7] = class symbols, read-out: GAK pSENs:IC50

T1 sequence (Q2M2I8 27-365): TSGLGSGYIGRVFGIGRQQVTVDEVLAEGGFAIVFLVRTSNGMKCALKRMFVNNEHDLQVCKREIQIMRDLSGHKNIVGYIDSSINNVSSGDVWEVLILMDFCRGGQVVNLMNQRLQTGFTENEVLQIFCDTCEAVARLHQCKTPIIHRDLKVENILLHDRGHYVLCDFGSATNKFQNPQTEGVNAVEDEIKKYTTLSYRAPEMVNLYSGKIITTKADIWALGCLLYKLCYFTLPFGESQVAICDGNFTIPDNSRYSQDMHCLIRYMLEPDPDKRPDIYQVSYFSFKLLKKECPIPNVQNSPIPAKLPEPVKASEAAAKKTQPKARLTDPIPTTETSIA
T2 sequence (Q9NSY1 38-345 K320A/K321A): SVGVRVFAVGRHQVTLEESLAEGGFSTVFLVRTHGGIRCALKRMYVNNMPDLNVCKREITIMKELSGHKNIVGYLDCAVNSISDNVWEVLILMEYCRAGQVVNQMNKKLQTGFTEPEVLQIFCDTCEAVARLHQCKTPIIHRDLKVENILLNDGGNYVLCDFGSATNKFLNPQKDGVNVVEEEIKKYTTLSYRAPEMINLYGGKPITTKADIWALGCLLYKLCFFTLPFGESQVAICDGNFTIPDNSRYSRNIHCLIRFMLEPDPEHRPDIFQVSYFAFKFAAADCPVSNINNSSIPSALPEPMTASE
Sequence of AAK1 (Q2M2I8 whole entry): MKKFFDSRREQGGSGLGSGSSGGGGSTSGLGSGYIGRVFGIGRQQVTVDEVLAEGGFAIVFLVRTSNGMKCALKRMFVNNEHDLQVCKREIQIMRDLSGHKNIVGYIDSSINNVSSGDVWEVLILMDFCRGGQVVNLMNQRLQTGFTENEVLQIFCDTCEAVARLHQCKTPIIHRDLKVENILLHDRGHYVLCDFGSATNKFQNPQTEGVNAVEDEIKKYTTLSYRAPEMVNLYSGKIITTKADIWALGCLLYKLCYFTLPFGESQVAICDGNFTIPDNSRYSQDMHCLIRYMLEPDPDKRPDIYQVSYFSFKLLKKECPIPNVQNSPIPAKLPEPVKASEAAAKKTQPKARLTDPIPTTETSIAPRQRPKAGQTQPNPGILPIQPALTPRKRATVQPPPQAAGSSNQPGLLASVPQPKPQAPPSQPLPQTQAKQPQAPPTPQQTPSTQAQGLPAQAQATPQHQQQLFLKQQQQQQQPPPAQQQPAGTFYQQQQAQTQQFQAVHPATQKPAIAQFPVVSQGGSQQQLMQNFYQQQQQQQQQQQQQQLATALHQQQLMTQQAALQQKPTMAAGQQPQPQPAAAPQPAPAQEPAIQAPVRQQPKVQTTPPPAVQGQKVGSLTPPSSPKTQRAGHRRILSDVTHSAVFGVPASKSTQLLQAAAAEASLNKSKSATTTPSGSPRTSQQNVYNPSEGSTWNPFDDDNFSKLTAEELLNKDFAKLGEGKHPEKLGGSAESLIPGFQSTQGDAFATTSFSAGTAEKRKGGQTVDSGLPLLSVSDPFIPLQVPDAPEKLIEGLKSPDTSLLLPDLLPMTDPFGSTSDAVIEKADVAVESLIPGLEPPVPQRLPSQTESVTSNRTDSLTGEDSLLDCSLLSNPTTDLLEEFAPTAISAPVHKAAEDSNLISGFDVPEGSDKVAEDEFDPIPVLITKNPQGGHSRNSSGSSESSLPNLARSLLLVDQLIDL

Compound	pIC50 [1, 4]	pIC50 (AAK1; [5])	pIC50 [2, 6]	pIC50 [3, 7]	also measured
CN(CCNc1ccn2ncc(-c3cccnc3OC3CC3)c2n1)C(=O)O[C@H]1CO[C@H]2OCC[C@H]21 [Compound I-71, (3R,3aS,6aR)-hexahydrofuro[2,3-b]furan-3-yl (2-((3-(2-cyclopropoxypyridin-3-yl)pyrazolo[1,5-a]pyrimidin-5-yl)amino)ethyl)(methyl)carbamate]	7.30 to 9.00	5.82 to 6.30	5.82 to 6.30	5.82 to 6.30	–
COc1cnc(OC2CC2)c(-c2cnn3ccc(N4CCN(C(=O)O[C@H]5CC(=O)N(C)C5)CC4)nc23)c1 [Compound I-87]	7.30 to 9.00	6.30 to 6.82	6.82 to 7.29	5.82 to 6.30	–
CN1C[C@@H](OC(=O)N2CCN(c3ccn4ncc(-c5cc(OC(F)(F)F)cnc5OC5CC5)c4n3)CC2)CC1=O [Compound I-88]	7.30 to 9.00	< 5.82	6.30 to 6.82	5.82 to 6.30	–
CN1C[C@H](OC(=O)N2CCN(c3ccn4ncc(-c5cccnc5OC5CC5)c4n3)CC2)CC1=O [Compound I-94]	7.30 to 9.00	5.82 to 6.30	–	–	pIC50 [2]: 6.30 to 6.82; pIC50 [3]: < 5.82
CN1C[C@@H](OC(=O)N2CCN(c3ccn4ncc(Cl)c4n3)CC2)CC1=O [Compound I-96, [(3S)-1-methyl-5-oxo-pyrrolidin-3-yl]-4-(3-chloropyrazolo[1,5-a]pyrimidin-5-yl)piperazine-1-carboxylate]	< 5.82	< 5.82	< 5.82	< 5.82	–
CN1C[C@@H](OC(=O)N2CCN(c3ccn4nccc4n3)CC2)CC1=O [Compound I-97, [(3S)-1-methyl-5-oxo-pyrrolidin-3-yl]-4-pyrazolo[1,5-a]pyrimidin-5-ylpiperazine-1-carboxylate]	< 5.82	< 5.82	< 5.82	< 5.82	–
CN1C[C@@H](OC(=O)N2CCN(c3ccn4ncc(-c5cccnc5O)c4n3)CC2)CC1=O [Compound I-98, [(3S)-1-methyl-5-oxo-pyrrolidin-3-yl]-4-[3-(2-hydroxy-3-pyridyl)pyrazolo[1,5-a]pyrimidin-5-yl]piperazine-1-carboxylate]	6.30 to 6.82	< 5.82	5.82 to 6.30	< 5.82	–
CC(C)(C)OC(=O)N1CCN(c2ccn3ncc(Cl)c3n2)CC1 [Compound I-100, tert-butyl 4-(3-chloropyrazolo[1,5-a]pyrimidin-5-yl)piperazine-1-carboxylate]	5.82 to 6.30	< 5.82	< 5.82	< 5.82	–
CC(C)(C)OC(=O)N1CCN(c2ccn3ncc(-c4cccnc4O)c3n2)CC1 [Compound I-102, tert-butyl 4-[3-(2-hydroxy-3-pyridyl)pyrazolo[1,5-a]pyrimidin-5-yl]piperazine-1-carboxylate]	7.30 to 9.00	5.82 to 6.30	6.82 to 7.29	< 5.82	–
Brc1cnn2ccc(N3CCNCC3)nc12 [Compound I-103, 3-bromo-5-piperazin-1-yl-pyrazolo[1,5-a]pyrimidine]	–	–	–	–	pIC50 [1]: < 5.82; pIC50 (AAK1): < 5.82; pIC50 [2]: < 5.82; pIC50 [3]: < 5.82
Clc1cnn2ccc(N3CCNCC3)nc12 [Compound I-104, 3-chloro-5-piperazin-1-yl-pyrazolo[1,5-a]pyrimidine]	< 5.82	< 5.82	< 5.82	< 5.82	–
c1cc2nc(N3CCNCC3)ccn2n1 [Compound I-105, 5-piperazin-1-ylpyrazolo[1,5-a]pyrimidine]	–	–	–	–	pIC50 [1]: < 5.82; pIC50 (AAK1): < 5.82; pIC50 [2]: < 5.82; pIC50 [3]: < 5.82
Oc1ncccc1-c1cnn2ccc(N3CCNCC3)nc12 [Compound I-106, 3-(5-piperazin-1-ylpyrazolo[1,5-a]pyrimidin-3-yl)pyridin-2-ol]	5.82 to 6.30	< 5.82	6.30 to 6.82	< 5.82	–
CC(C)(C)OC(=O)NCCNc1nc2c(-c3cccnc3OC3CC3)cnn2cc1F [Compound I-124, tert-butyl N-[2-[[3-[2-(cyclopropoxy)-3-pyridyl]-6-fluoro-pyrazolo[1,5-a]pyrimidin-5-yl]amino]ethyl]carbamate]	6.82 to 7.29	5.82 to 6.30	5.82 to 6.30	5.82 to 6.30	–
CC(C)(C)OC(=O)NCCNc1ccc2ncc(-c3cccnc3OC3CC3)n2n1 [Compound I-129, tert-butyl N-[2-[[3-[2-(cyclopropoxy)-3-pyridyl]imidazo[1,2-b]pyridazin-6-yl]amino]ethyl]carbamate]	7.30 to 9.00	5.82 to 6.30	6.82 to 7.29	6.30 to 6.82	–
COc1ncccc1-c1cnn2ccc(N3CCN(C(=O)OC4(C)COC4)CC3)nc12 [RC-1, (3-methyloxetan-3-yl)-4-[3-(2-methoxy-3-pyridyl)pyrazolo[1,5-a]pyrimidin-5-yl]piperazine-1-carboxylate, reference compound]	–	–	–	–	pIC50 ([1]; numeric values, read-out: AAK1 pSENs: EIC50): 8.06; pIC50 (AAK1; Hela cells co-transfected with AP2M1 and AAK1, 3 hr treatment, numeric values, read-out: AAK1 In-cell Western: IC50): 6.80; pIC50 ([2]; numeric values, read-out: BIKE pSENs: IC50): 7.07; pIC50 ([3]; numeric values, read-out: GAK pSENs:IC50): 5.98
